Laboratory results: patent publication US7132420B2, “Aspartic protease inhibitors” (The United States of America as represented by the …, priority 1999, dated 2006)
Read-outs that look alike come from different tables or passages of the source.

How the values were obtained:
HIV-1 protease = HIV-1 protease (Human immunodeficiency virus type 1 group M subtype B, UniProt P04585); experiment: HIV protease assay (Ki); type: biochemical; conditions: for HIV-1 protease % inhibition: Table 1 Ki column
Excerpt: (§1) This example illustrates the HIV-1 protease inhibition activity (Ki), HIV-1 antiviral data (EC50), and the toxicity against normal cells (IC50), for particular compounds of formula (I). The HIV protease assay was done according to the protocol described in Kageyama et al, Antimicrob. Agents Chemother., 37, 272 (1993). The HIV antiviral assay was done according to the protocol described in Weislow et al., J. National Cancer Inst. 81, 577 (1989).
(§2) The HIV protease assay was done according to the protocol described in Example 35. The plasmepsin II assay was done according to the protocol used in Silva et al., Proc. Nat. Acad. Sci. USA, 93, pp. 10034–10039, September 1996 (Biochemstry). The cathepsin D assay was done according to the protocol described in Gulnik et al., FEBS Letters, 413, 379–384 (1997). The compounds illustrated in Table 2 are of the general formula (II), as described in Example 35.

HIV-1 = experiment: HIV antiviral assay (EC50); type: cell-based; conditions: Table 1
Excerpt: The HIV protease assay was done according to the protocol described in Kageyama et al, Antimicrob. Agents Chemother., 37, 272 (1993). The HIV antiviral assay was done according to the protocol described in Weislow et al., J. National Cancer Inst. 81, 577 (1989).

normal cells = experiment: toxicity against normal cells (IC50); type: cell-based; conditions: Table 1
Excerpt: as §1

plasmepsin II = plasmepsin II (Plasmodium falciparum, UniProt P46925); experiment: biochemical; type: biochemical; conditions: Table 2; read-out: Pls II Ki
plasmepsin II, sequence (P46925 125-453): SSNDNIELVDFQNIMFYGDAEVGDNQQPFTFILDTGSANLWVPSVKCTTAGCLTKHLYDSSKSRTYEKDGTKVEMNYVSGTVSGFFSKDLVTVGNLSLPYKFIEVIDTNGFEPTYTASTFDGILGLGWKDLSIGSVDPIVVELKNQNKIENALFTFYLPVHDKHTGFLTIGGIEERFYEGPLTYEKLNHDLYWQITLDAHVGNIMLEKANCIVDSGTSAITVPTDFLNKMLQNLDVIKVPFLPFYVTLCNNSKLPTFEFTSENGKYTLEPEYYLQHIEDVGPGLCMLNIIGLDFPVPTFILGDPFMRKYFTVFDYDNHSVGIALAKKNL
Excerpt: as §2

[1] = Table 1, in nM, read-out: HIV-1 Ki

SMILES | Ki (HIV-1 protease; Table 1, read-out: HIV-1 Ki) [nM] | EC50 (HIV-1) [nM] | IC50 (normal cells) [nM] | further results
Cc1cccc(C)c1OCC(=O)N[C@@H](Cc1ccccc1)[C@@H](O)C[C@H](CC(C)C)NC(=O)C1CCCN(C(=O)OCc2ccccc2)C1 (some centres unmarked) [(47)] | 1.5 ± 0.066 | – | – | –
CC(C)C[C@@H](C[C@H](O)[C@H](Cc1ccccc1)NC(=O)N1CCOCC1)NC(=O)[C@H](C(C)C)N1CCCNC1=O [(36)] | 0.571 | 2000 | > 100000 | –
Cc1c(O)cccc1C(=O)N[C@@H](Cc1ccccc1)[C@@H](O)C[C@H](CC(C)C)NC(=O)[C@H](C(C)C)N1CCCNC1=O [(37), (2S,3S,5S)-2-[N-(3-hydroxy-2-methylbenzoyl)amino]-5-[N-[[3-methyl-2S-(2-oxo-tetrahydropyrimidin-1-yl)]butyryl]amino]-3-hydroxy-7-methyl-1-phenyloctane] | 0.104 ± 0.01 | 200 | > 10000 | –
Cc1cccc(C)c1OCC(=O)N[C@@H](CC(C)C)C[C@H](O)[C@H](Cc1ccccc1)NC(=O)c1cccc(O)c1C [(42), (2S,3S,5S)-5-[N-[2-(2,6-dimethylphenoxy)acetyl]amino]-2-[N-(3-hydroxy-2-methylbenzoyl)amino]-3-hydroxy-7-methyl-1-phenyloctane] | – | – | > 100000 | EC50 (HIV-1; Human immunodeficiency virus 1): 750 nM; Ki (HIV-1 protease): 0.311 nM
Cc1cccc(C)c1OCC(=O)N[C@@H](Cc1ccccc1)[C@@H](O)C[C@H](CC(C)C)NC(=O)c1cccc(O)c1 [(58)] | – | 2000 | 10000 | Ki (HIV-1 protease; [1]): 1.2 nM
CC(C)C[C@@H](C[C@H](O)[C@H](Cc1ccccc1)NC(=O)CNC(=O)OCc1ccccc1)NC(=O)c1cccc(O)c1 [(59)] | – | > 10000 | – | Ki (HIV-1 protease; [1]): 108 nM
COc1ccc(C(=O)N[C@H](C(=O)N[C@@H](CC(C)C)C[C@H](O)[C@H](Cc2ccccc2)NC(=O)COc2c(C)cccc2C)C(C)C)cc1 [(52), (2S,3S,5S)-2-[N-[2-(2,6.-dimethylphenoxy)acetyl]amino]-5-[N-[[N′-(p-methoxyphenylcarbonyl)]valinyl]amino]-3-hydroxy-7-methyl-1-phenyloctane] | 0.03 | 200 | > 93000 | –
CC(C)C[C@@H](C[C@H](O)[C@H](Cc1ccccc1)NC(=O)[C@H](C)NC(=O)OCc1ccccc1)NC(=O)c1cccc(O)c1 [(61)] | – | > 10000 | – | Ki (HIV-1 protease; [1]): 2 nM
Cc1cccc(C)c1OCC(=O)N[C@@H](Cc1ccccc1)[C@@H](O)C[C@H](CC(C)C)NC(=O)[C@@H](N)C(C)C [(49)] | – | 8000 | > 100000 | Ki (HIV-1 protease; [1]): 4 nM
Cc1cccc(C)c1OCC(=O)N[C@@H](Cc1ccccc1)[C@@H](O)C[C@H](CC(C)C)NC(=O)[C@@H](NS(C)(=O)=O)C(C)C [(51), (2S,3S,5S)-2-[N-[2-(2,6-dimethylphenoxy)acetyl]amino]-5-[N-[[N′-(methylsulfonyl)]valinyl]amino]-3-hydroxy-7-methyl-1-phenyloctane] | 0.034 | 700 | > 100000 | –
CC(C)C[C@@H](C[C@H](O)[C@H](Cc1ccccc1)NC(=O)[C@@H](NC(=O)OCc1ccccc1)C(C)C)NC(=O)c1cccc(O)c1 [Compound (60)] | 0.198 | 910 | > 10000 | Ki (plasmepsin II): 2.4 nM; Ki (HIV-1 protease; Table 2, read-out: HIV-1 Ki): 0.198 nM
Cc1cccc(C)c1OCC(=O)NC(Cc1ccccc1)C(O)CC(CC(C)C)NC(=O)C(C(C)C)N1CCCN(C)C1=O (centres unmarked) [(68)] | – | – | 5000 | –
Cc1cccc(C)c1OCC(=O)N[C@@H](CC(C)C)C[C@H](O)[C@H](Cc1ccccc1)NC(=O)OCc1ccccc1 [(40), (2S,3S,5S)-2-[N-(benzyloxycarbonyl)amino]-5-[N-[2-(2,6-dimethylphenoxy)acetyl]amino]-3-hydroxy-7-methyl-1-phenyloctane] | 0.197 | – | – | HIV-1 EC50 (μM) (HIV-1): inactive
CC(=O)N[C@H](C(=O)N[C@@H](CC(C)C)C[C@H](O)[C@H](Cc1ccccc1)NC(=O)COc1c(C)cccc1C)C(C)C [(50)] | 0.014 | 300 | > 100000 | –
Cc1cccc(C)c1OCC(=O)N[C@@H](Cc1ccccc1)[C@@H](O)C[C@H](CC(C)C)NC(=O)[C@H](C)NC(=O)OCc1ccccc1 [(56), (2S,3S,5S)-5-[N-[N′-(benzyloxycarbonyl)alaninyl]amino]-2-[N-[2-(2,6-dimethylphenoxy)acetyl]amino]-3-hydroxy-7-methyl-1-phenyloctane] | 0.195 | 1000 | > 100000 | –
CC[C@H](C)[C@H](NC(=O)OCc1ccccc1)C(=O)N[C@@H](Cc1ccccc1)[C@@H](O)C[C@H](CC(C)C)NC(=O)c1cccc(O)c1 [(62)] | 0.157 | 1400 | > 10000 | Ki (plasmepsin II): 1.2 nM; Ki (HIV-1 protease; Table 2, read-out: HIV-1 Ki): 0.157 nM
COc1ccc(S(=O)(=O)N[C@H](C(=O)N[C@@H](CC(C)C)C[C@H](O)[C@H](Cc2ccccc2)NC(=O)COc2c(C)cccc2C)C(C)C)cc1 [(54)] | 0.0068 | 200 | 84000 | –
CC(C)C[C@@H](C[C@H](O)[C@H](Cc1ccccc1)NC(=O)[C@H](Cc1ccccc1)NC(=O)OCc1ccccc1)NC(=O)c1cccc(O)c1 [(67)] | – | – | – | Ki (plasmepsin II): 17 nM; HIV-1 EC50 (μM) (HIV-1): not active
CC(C)C[C@@H](C[C@H](O)[C@H](Cc1ccccc1)NC(=O)OCc1ccccc1)NC(=O)[C@H](C(C)C)N1CCCNC1=O [(18)] | 0.065 ± 0.016 | 600 | > 100000 | –
Cc1cccc(C)c1OCC(=O)N[C@@H](Cc1ccccc1)[C@@H](O)C[C@H](CC(C)C)NC(=O)[C@H](CC(N)=O)NC(=O)c1ccc2ccccc2n1 [(65)] | 0.0382 | – | – | –
Cc1cccc(C)c1OCC(=O)N[C@@H](Cc1ccccc1)[C@@H](O)C[C@H](CC(C)C)NC(=O)C1CCN(C(=O)OCc2ccccc2)CC1 [(48)] | – | – | – | Ki (HIV-1 protease; [1]): 113 nM
CC(C)C[C@@H](C[C@H](O)[C@H](Cc1ccccc1)NC(=O)OCc1ccccc1)NC(=O)[C@@H](C(C)C)N1CCCNC1=O [(33)] | – | – | – | HIV-1 protease % inhibition (HIV-1 protease; @0.5 μM): 38%; HIV-1 protease % inhibition (HIV-1 protease; @1 μM): 65%
CC(C)(C)OC(=O)N[C@@H](Cc1ccccc1)C[C@H](O)[C@H](Cc1ccccc1)NC(=O)OCc1ccccc1 [(53), reference compound] | – | > 10000 | > 100000 | Ki (HIV-1 protease; [1]): 1 nM
Cc1cccc(C)c1OCC(=O)N[C@@H](Cc1ccccc1)[C@@H](O)C[C@H](CC(C)C)NC(=O)CC(C)C [(55)] | – | 10000 | > 100000 | Ki (HIV-1 protease; [1]): 1.5 nM
CC(C)CC(CC(O)C(Cc1ccccc1)NC(=O)C(C(C)C)N1CCCNC1=O)NC(=O)OC(C)(C)C (centres unmarked) [(44)] | 1.49 | – | – | HIV-1 EC50 (μM) (HIV-1): in-active
Cc1cccc(C)c1OCC(=O)N[C@@H](Cc1ccccc1)[C@@H](O)C[C@H](CC(C)C)NC(=O)OCc1cncs1 [(57), (2S,3S,5S)-2-[N-[2-(2,6-dimethylphenoxy)acetyl]amino]-5-[N-[(thiazol-5-yl-methoxy)carbonyl]amino]-3-hydroxy-7-methyl-1-phenyloctane] | – | – | 10000 | EC50 (HIV-1; Human immunodeficiency virus 1): 1000 nM; Ki (HIV-1 protease): 0.094 nM
Cc1cccc(C)c1OCC(=O)N[C@@H](CC(C)C)C[C@H](O)[C@H](Cc1ccccc1)NC(=O)O[C@H]1CCOC1 [(41), (2S,3S,5S)-5-[N-[2-(2,6-dimethylphenoxy)acetyl]amino]-2-[N-(3S-terahydrofuranyloxycarbonyl]amino]-3-hydroxy-7-methyl-1-phenyloctane] | 0.222 | > 1000 | > 100000 | –
